As a reminder, the IC50 is the concentration that inhibits the measured activity by half.

In assay [1] the target is recombinant human ACC1 (rhACC1) (Homo sapiens (Human), UniProt Q13085). Kind of assay: recombinant hACC1 Transcreener ADP detection FP assay. In kind it is biochemical. Conditions: 50 μM ATP, 120 min at 25° C. How it is done: (§1) For example direct inhibition of ACC activity, for the compound of Formula (I) was determined using preparations of recombinant human ACC1 (rhACC1) and recombinant human ACC2 (rhACC2).
[1] Preparation of rhACC1. Two liters of SF9 cells, infected with recombinant baculovirus containing full length human ACC1 cDNA, were suspended in ice-cold lysis buffer (25 mM Tris, pH 7.5; 150 mM NaCl; 10% glycerol; 5 mM imidazole (EMD Bioscience; Gibbstown, N.J.); 2 mM TCEP (BioVectra; Charlottetown, Canada); Benzonase nuclease (10000 U/100 g cell paste; Novagen; Madison, Wis.); EDTA-free protease inhibitor cocktail (1 tab/50 mL; Roche Diagnostics; Mannheim, Germany). Cells were lysed by 3 cycles of freeze-thaw and centrifuged at 40,000×g for 40 minutes (4° C.). Supernatant was directly loaded onto a HisTrap FF crude column (GE Healthcare; Piscataway, N.J.) and eluted with an imidazole gradient up to 0.5 M over 20 column volumes (CV). ACC1-containing fractions were pooled and diluted 1:5 with 25 mM Tris, pH 7.5, 2 mM TCEP, 10% glycerol and direct loaded onto a CaptoQ (GE Healthcare) column and eluted with an NaCl gradient up to 1 M over 20 CV's. Phosphate groups were removed from purified ACC1 by incubation with lambda phosphatase (100 U/10 μM target protein; New England Biolabs; Beverly, Mass.) for 14 hours at 4° C.; okadaic acid was added (1 μM final concentration; Roche Diagnostics) to inhibit the phosphatase. Purified ACC1 was exchanged into 25 mM Tris, pH 7.5, 2 mM TCEP, 10% glycerol, 0.5 M NaCl by 6 hour dialysis at 4° C. Aliquots were prepared and frozen at −80° C.
[2] Measurement of rhACC1 inhibition. hACC1 was assayed in a Costar #3676 (Costar, Cambridge, Mass.) 384-well plate using the Transcreener ADP detection FP assay kit (Bellbrook Labs, Madison, Wis.) using the manufacturer's recommended conditions for a 50 μM ATP reaction. The final conditions for the assay were 50 mM HEPES, pH 7.2, 10 mM MgCl2, 7.5 mM tripotassium citrate, 2 mM DTT, 0.1 mg/mL BSA, 30 μM acetyl-CoA, 50 μM ATP, and 10 mM KHCO3 Typically, a 10 μl reaction was run for 120 min at 25° C., and 10 μl of Transcreener stop and detect buffer was added and the combination incubated at room temp for an additional 1 hour. The data was acquired on a Envision Fluorescence reader (PerkinElmer) using a 620 excitation Cy5 FP general dual mirror, 620 excitation Cy5 FP filter, 688 emission (S) and a 688 (P) emission filter.

Assay [2] concerns the target recombinant human ACC2 (rhACC2) (Homo sapiens (Human), UniProt O00763). Nature of the assay: recombinant hACC2 Transcreener ADP detection FP assay. In kind it is biochemical. Conditions: 50 uM ATP, 50 min at 25° C. The protocol: as §1
[3] Preparation of rhACC2. Human ACC2 inhibition was measured using purified recombinant human ACC2 (hrACC2). Briefly, a full length Cytomax clone of ACC2 was purchased from Cambridge Bioscience Limited and was sequenced and subcloned into PCDNA5 FRT TO-TOPO (Invitrogen, Carlsbad, Calif.). The ACC2 was expressed in CHO cells by tetracycline induction and harvested in 5 liters of DMEM/F12 with glutamine, biotin, hygromycin and blasticidin with 1 μg/mL tetracycline (Invitrogen, Carlsbad, Calif.). The conditioned medium containing ACC2 was then applied to a Softlink Soft Release Avidin column (Promega, Madison, Wis.) and eluted with 5 mM biotin. […] The purified ACC2 was dialyzed in 50 mM Tris, 200 mM NaCl, 4 mM DTT, 2 mM EDTA, and 5% glycerol. […] For measurement of ACC2 activity and assessment of ACC2 inhibition, test compounds were dissolved in DMSO and added to the rhACC2 enzyme as a 5× stock with a final DMSO concentration of 1%.
[4] Measurement of human ACC2 inhibition. hACC2 was assayed in a Costar #3676 (Costar, Cambridge, Mass.) 384-well plate using the Transcreener ADP detection FP assay kit (Bellbrook Labs, Madison, Wis.) using the manufacturer's recommended conditions for a 50 uM ATP reaction. The final conditions for the assay were 50 mM HEPES, pH 7.2, 5 mM MgCl2, 5 mM tripotassium citrate, 2 mM DTT, 0.1 mg/mL BSA, 30 μM acetyl-CoA, 50 μM ATP, and 8 mM KHCO3 Typically, a 10 μl reaction was run for 50 min at 25° C., and 10 μl of Transcreener stop and detect buffer was added and the combination incubated at room temp for an additional 1 hour. The data was acquired on an Envision Fluorescence reader (PerkinElmer) using a 620 excitation Cy5 FP general dual mirror, 620 excitation Cy5 FP filter, 688 emission (S) and a 688 (P) emission filter.

recombinant human ACC2 (rhACC2), sequence (O00763 whole entry V2141I): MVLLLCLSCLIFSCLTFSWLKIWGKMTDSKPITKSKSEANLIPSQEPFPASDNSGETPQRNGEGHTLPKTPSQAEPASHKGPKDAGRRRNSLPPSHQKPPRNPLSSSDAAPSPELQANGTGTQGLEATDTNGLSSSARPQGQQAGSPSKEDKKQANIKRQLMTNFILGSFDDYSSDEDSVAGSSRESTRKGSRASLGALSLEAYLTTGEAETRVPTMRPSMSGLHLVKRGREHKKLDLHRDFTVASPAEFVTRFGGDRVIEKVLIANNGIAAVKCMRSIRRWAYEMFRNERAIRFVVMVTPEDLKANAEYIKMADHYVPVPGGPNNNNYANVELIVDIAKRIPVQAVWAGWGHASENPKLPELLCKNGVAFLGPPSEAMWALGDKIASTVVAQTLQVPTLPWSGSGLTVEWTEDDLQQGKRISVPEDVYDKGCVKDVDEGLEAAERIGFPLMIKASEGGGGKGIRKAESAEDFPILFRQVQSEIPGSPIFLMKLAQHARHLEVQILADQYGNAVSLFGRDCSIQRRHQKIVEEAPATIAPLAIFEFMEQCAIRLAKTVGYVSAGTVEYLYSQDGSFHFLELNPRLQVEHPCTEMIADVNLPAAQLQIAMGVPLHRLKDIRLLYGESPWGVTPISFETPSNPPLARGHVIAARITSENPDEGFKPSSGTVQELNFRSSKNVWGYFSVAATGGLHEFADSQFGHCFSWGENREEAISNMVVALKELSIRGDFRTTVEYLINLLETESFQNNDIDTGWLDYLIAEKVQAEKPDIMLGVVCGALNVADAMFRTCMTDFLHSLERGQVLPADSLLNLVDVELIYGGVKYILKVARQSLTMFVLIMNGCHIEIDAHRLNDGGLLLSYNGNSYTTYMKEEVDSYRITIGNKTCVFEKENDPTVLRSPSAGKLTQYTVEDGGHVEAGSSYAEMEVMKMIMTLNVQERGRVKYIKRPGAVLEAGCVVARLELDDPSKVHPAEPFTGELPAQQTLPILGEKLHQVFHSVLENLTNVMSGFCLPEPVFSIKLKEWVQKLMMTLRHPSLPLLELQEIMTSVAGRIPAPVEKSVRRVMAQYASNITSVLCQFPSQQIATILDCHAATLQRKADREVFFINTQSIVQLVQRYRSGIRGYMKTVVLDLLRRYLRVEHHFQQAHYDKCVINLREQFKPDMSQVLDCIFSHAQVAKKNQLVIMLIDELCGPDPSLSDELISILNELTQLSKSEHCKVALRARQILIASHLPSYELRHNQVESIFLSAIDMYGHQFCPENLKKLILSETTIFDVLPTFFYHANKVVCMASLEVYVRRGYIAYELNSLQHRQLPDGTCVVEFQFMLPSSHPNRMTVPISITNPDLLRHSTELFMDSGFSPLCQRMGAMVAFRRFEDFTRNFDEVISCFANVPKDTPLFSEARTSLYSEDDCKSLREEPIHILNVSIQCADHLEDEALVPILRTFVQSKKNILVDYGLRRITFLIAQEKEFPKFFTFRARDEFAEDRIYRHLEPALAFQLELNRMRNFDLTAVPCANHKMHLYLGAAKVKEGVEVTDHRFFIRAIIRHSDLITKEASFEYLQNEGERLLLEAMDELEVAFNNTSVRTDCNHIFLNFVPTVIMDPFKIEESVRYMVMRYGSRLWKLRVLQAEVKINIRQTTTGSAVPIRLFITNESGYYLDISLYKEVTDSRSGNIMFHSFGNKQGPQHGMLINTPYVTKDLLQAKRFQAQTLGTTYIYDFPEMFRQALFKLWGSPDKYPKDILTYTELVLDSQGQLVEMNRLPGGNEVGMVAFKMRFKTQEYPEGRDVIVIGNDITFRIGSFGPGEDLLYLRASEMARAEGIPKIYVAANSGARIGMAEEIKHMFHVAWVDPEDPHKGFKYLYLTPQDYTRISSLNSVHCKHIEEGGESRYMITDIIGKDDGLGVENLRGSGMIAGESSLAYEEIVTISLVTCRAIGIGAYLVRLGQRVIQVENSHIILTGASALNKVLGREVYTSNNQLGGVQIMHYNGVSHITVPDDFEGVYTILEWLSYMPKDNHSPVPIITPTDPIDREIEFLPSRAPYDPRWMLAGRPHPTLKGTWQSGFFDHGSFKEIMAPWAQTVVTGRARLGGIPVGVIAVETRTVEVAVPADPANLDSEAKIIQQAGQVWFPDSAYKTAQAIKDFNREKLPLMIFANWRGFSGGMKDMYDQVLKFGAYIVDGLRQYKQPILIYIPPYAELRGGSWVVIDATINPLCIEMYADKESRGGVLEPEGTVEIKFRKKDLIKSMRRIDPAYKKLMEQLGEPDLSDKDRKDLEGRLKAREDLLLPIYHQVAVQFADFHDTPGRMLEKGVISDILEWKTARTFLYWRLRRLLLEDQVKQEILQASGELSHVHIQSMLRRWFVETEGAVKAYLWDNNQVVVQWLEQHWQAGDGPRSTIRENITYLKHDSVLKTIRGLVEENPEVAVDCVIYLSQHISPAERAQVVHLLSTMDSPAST

As to `Cc1nc2cc(C(=O)N3CCC4(CC3)Cc3cnn(C(C)C)c3C(=O)N4)ccc2[nH]1` [Example 1, 1′-isopropyl-1-(2-methyl-1H-benzo[d]imidazole-5-carbonyl)-4′,6′-dihydrospiro[piperidine-4,5′-pyrazolo[3,4-c]pyridin]-7′(1′H)-one], the half-maximal inhibitory concentration (IC50) amounted to 417 nM in assay [1] and 312 nM in assay [2].

As to `CC(C)n1ncc2c1C(=O)NC1(CCN(C(=O)c3ccc4nn(C)cc4c3)CC1)C2` [Example 3, 1′-isopropyl-1-(2-methyl-2H-indazole-5-carbonyl)-4′,6′-dihydrospiro[piperidine-4,5′-pyrazolo[3,4-c]pyridin]-7′(1′H)-one], the IC50 was 3920 nM in assay [1] and 2280 nM in assay [2].

In the case of `Cc1cc(C(=O)N2CCC3(CC2)Cc2cnn(C(C)C)c2C(=O)N3)cc2c[nH]nc12` [Example 4], the IC50 came out at 43 nM in assay [1] and 38 nM in assay [2].

With `CC(C)n1ncc2c1C(=O)NC1(CCN(C(=O)c3ccc4[nH]ncc4c3)CC1)C2` [Example 5], the IC50 was 227 nM in assay [1] and 174 nM in assay [2].

As for `CC(C)(C)n1ncc2c1C(=O)NC1(CCN(C(=O)c3ccc4n[nH]cc4c3)CC1)C2` [Example 6], the 50% inhibitory concentration (IC50) in assay [1] was determined as 269 nM; in assay [2], 305 nM.

On to `Cc1cc(C(=O)N2CCC3(CC2)Cc2cnn(C(C)(C)C)c2C(=O)N3)cc2cn[nH]c12` [Example 7], for which the IC50 in assay [1] worked out at 62 nM; in assay [2], 47 nM.

On to `CC(C)n1ncc2c1C(=O)NC1(CCN(C(=O)c3cnc4[nH]ccc4c3)CC1)C2` [Example 9], for which the IC50 in assay [1] turned out to be 648 nM; in assay [2] it was 560 nM.

With `CC(C)n1ncc2c1C(=O)NC1(CCN(C(=O)c3cnc4cc[nH]c4c3)CC1)C2` [Example 10], the IC50 is 403 nM in assay [1] and 498 nM in assay [2].

In the case of `CC(C)n1ncc2c1C(=O)NC1(CCN(C(=O)c3cc(Cl)c4[nH]ncc4c3)CC1)C2` [Example 11], the IC50 in assay [1] came out at 88 nM; in assay [2] it was 72 nM.

Take `COc1cc(C(=O)N2CCC3(CC2)Cc2cnn(C(C)C)c2C(=O)N3)cc2[nH]ncc12` [Example 12]: the values for the IC50 in assay [1] and in assay [2] were 35 nM and 37 nM, respectively.

In the case of `CC(C)n1ncc2c1C(=O)NC1(CCN(C(=O)c3ccc4c(cnn4C)c3)CC1)C2` [Example 13], the IC50 in assay [1] stood at 2040 nM; in assay [2], 1550 nM.

Consider `CCc1cc(C(=O)N2CCC3(CC2)Cc2cnn(C(C)C)c2C(=O)N3)cc2cn[nH]c12` [Example 14], for which the results for the IC50 in assay [1] and in assay [2] were 131 nM and 91 nM, respectively.

Turning to `CCc1n[nH]c2ccc(C(=O)N3CCC4(CC3)Cc3cnn(C(C)C)c3C(=O)N4)cc12` [Example 15], the IC50 in assay [1] was determined as 251 nM; in assay [2], 143 nM.

Turning to `Cc1n[nH]c2ccc(C(=O)N3CCC4(CC3)Cc3cnn(C(C)C)c3C(=O)N4)cc12` [Example 16], the half-inhibitory concentration (IC50) in assay [1] was 118 nM; in assay [2] it was 90 nM.

As to `COc1cc(C(=O)N2CCC3(CC2)Cc2cnn(C(C)C)c2C(=O)N3)nc2c(OC)cccc12` [Example 17], the results for the IC50 in assay [1] and in assay [2] were 72 nM and 31 nM, respectively.

As for `CC(C)n1ncc2c1C(=O)NC1(CCN(C(=O)c3cc4ncccc4[nH]3)CC1)C2` [Example 18], the figures for the IC50 in assay [1] and in assay [2] were 657 nM and 719 nM, respectively.

On to `CC(C)n1ncc2c1C(=O)NC1(CCN(C(=O)c3cnc4cn[nH]c4c3)CC1)C2` [Example 19], for which the IC50 is 1480 nM in assay [1] and 2010 nM in assay [2].

With `CC(C)n1ncc2c1C(=O)NC1(CCN(C(=O)c3cnc4ccccc4c3)CC1)C2` [Example 20], the results for the IC50 in assay [1] and in assay [2] were 336 nM and 299 nM, respectively.

In the case of `CC(C)n1ncc2c1C(=O)NC1(CCN(C(=O)c3ccc4ncccc4c3)CC1)C2` [Example 21], the concentration for half-maximal inhibition (IC50) in assay [1] was determined as 619 nM; in assay [2], 341 nM.

On to `CC(C)n1ncc2c1C(=O)NC1(CCN(C(=O)c3ccc4cnccc4c3)CC1)C2` [Example 22], for which the IC50 in assay [1] was 1250 nM; in assay [2], 843 nM.

For the compound `CC(C)n1ncc2c1C(=O)NC1(CCN(C(=O)c3ccc4ccncc4c3)CC1)C2` [Example 23], the IC50 in assay [1] came out at 621 nM; in assay [2], 520 nM.

Take `CC(C)n1ncc2c1C(=O)NC1(CCN(C(=O)c3ccc4cccnc4c3)CC1)C2` [Example 24]: the half-maximal inhibitory concentration (IC50) turned out to be 688 nM in assay [1] and 320 nM in assay [2].

For the compound `CC(C)n1ncc2c1C(=O)NC1(CCN(C(=O)c3ccc4[nH]nc(C#N)c4c3)CC1)C2` [Example 25], the IC50 was 259 nM in assay [1] and 137 nM in assay [2].

With `COc1ccc2ncc(C(=O)N3CCC4(CC3)Cc3cnn(C(C)C)c3C(=O)N4)cc2c1` [Example 26], the IC50 in assay [1] was 121 nM; in assay [2] it was 60 nM.

For the compound `CC(C)n1ncc2c1C(=O)NC1(CCN(C(=O)c3ccc4[nH]nc(C(N)=O)c4c3)CC1)C2` [Example 27], the IC50 in assay [1] was found to be 296 nM; in assay [2], 132 nM.

Consider `COc1ccc2ccc(C(=O)N3CCC4(CC3)Cc3cnn(C(C)C)c3C(=O)N4)cc2n1` [Example 28], for which the IC50 was 158 nM in assay [1] and 56 nM in assay [2].

As for `CNc1ccc2ccc(C(=O)N3CCC4(CC3)Cc3cnn(C(C)C)c3C(=O)N4)cc2n1` [Example 29], the IC50 in assay [1] is 33 nM; in assay [2] it was 9.2 nM.

With `COc1nccc2ccc(C(=O)N3CCC4(CC3)Cc3cnn(C(C)C)c3C(=O)N4)cc12` [Example 30], the IC50 came to 98 nM in assay [1] and 30 nM in assay [2].

With `CC(C)n1ncc2c1C(=O)NC1(CCN(C(=O)c3cnc4[nH]cc(Cl)c4c3)CC1)C2` [Example 31], the IC50 in assay [1] was 179 nM; in assay [2] it was 96 nM.

Regarding `CC(C)n1ncc2c1C(=O)NC1(CCN(C(=O)c3cnc4c(Cl)c[nH]c4c3)CC1)C2` [Example 32], the IC50 in assay [1] is 154 nM; in assay [2], 56 nM.

On to `CNc1nc2cc(C(=O)N3CCC4(CC3)Cc3cnn(C(C)C)c3C(=O)N4)ccc2[nH]1` [Example 33], for which the IC50 in assay [1] amounted to 523 nM; in assay [2], 108 nM.

On to `CC(C)n1ncc2c1C(=O)NC1(CCN(C(=O)c3ccc4[nH]nc(Cl)c4c3)CC1)C2` [Example 34], for which the IC50 worked out at 116 nM in assay [1] and 50 nM in assay [2].

With `CC(C)n1ncc2c1C(=O)NC1(CCN(C(=O)c3ccc4[nH]c(N)nc4c3)CC1)C2` [Example 35], the half-maximal inhibitory concentration (IC50) in assay [1] came to 487 nM; in assay [2] it was 91 nM.

`CNc1nccc2ccc(C(=O)N3CCC4(CC3)Cc3cnn(C(C)C)c3C(=O)N4)cc12` [Example 36]: the figures for the IC50 in assay [1] and in assay [2] were 67 nM and 28 nM, respectively.

`CNc1n[nH]c2ccc(C(=O)N3CCC4(CC3)Cc3cnn(C(C)C)c3C(=O)N4)cc12` [Example 37]: the values for the IC50 in assay [1] and in assay [2] were 302 nM and 127 nM, respectively.

On to `CNc1cc2ccc(C(=O)N3CCC4(CC3)Cc3cnn(C(C)C)c3C(=O)N4)cc2cn1` [Example 38], for which the concentration for half-maximal inhibition (IC50) was found to be 364 nM in assay [1] and 107 nM in assay [2].

The record behind these values is patent US8993586B2, “N1/N2-lactam acetyl-CoA carboxylase inhibitors” (Pfizer Inc., priority 2010, dated 2015).
